# Experimental data: PubChem BioAssay AID1919000 (Molecular Pharmacology Branch, DTP, NCI, 2023)
# Test system: 653999-131-R-J2-PDC complex spheroids, growth % test/control
# Assay: Anticancer human tumor 653999-131-R-J2-PDC patient-derived lung adenocarcinoma cell line growth inhibition [AhR]
# Conditions: for IC50: curve of first compound; for viability, T/C: stronger effect = lower value
# In short: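 Spheroids combined tumor cells with HUVEC endothelial cells and human MSCs as stroma. AhR antagonists were paired with standard or investigational drugs, each dosed in half-log steps down from near clinical Cmax, or from 10 microM where Cmax was unknown.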
# 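Further: spheroids exposed to agents for seven days.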
# 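Wherever viability, T/C is given: 100% = DMSO vehicle control viability.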
structure (smiles),measurement,setting,value
CC1(C)CCC(CN2CCN(c3ccc(C(=O)NS(=O)(=O)c4ccc(NCC5CCOCC5)c([N+](=O)[O-])c4)c(Oc4cnc5[nH]ccc5c4)c3)CC2)=C(c2ccc(Cl)cc2)C1 + CC(CO)NC(=O)c1cc(-c2ccc(Cl)cc2)nn(-c2cnn(C)c2)c1=O,IC50,second compound 0.1 µM,> 10 µM
same,IC50,second compound 0.316 µM,> 10 µM
same,IC50,second compound 1 µM,> 10 µM
same,IC50,second compound 3.16 µM,> 10 µM
same,IC50,second compound 10 µM,> 10 µM
same,"viability, T/C","second compound 0.1 µM, first compound 0.0316 µM",105%
same,"viability, T/C","second compound 0.1 µM, first compound 0.1 µM",101%
same,"viability, T/C","second compound 0.1 µM, first compound 0.316 µM",99.6%
same,"viability, T/C","second compound 0.1 µM, first compound 1 µM",94.1%
same,"viability, T/C","second compound 0.1 µM, first compound 3.16 µM",108%
same,"viability, T/C","second compound 0.1 µM, first compound 10 µM",71.2%
same,"viability, T/C","second compound 0.316 µM, first compound 0.0316 µM",98%
same,"viability, T/C","second compound 0.316 µM, first compound 0.1 µM",101%
same,"viability, T/C","second compound 0.316 µM, first compound 0.316 µM",103%
same,"viability, T/C","second compound 0.316 µM, first compound 1 µM",89.8%
same,"viability, T/C","second compound 0.316 µM, first compound 3.16 µM",94%
same,"viability, T/C","second compound 0.316 µM, first compound 10 µM",71%
same,"viability, T/C","second compound 1 µM, first compound 0.0316 µM",90.8%
same,"viability, T/C","second compound 1 µM, first compound 0.1 µM",104%
same,"viability, T/C","second compound 1 µM, first compound 0.316 µM",107%
same,"viability, T/C","second compound 1 µM, first compound 1 µM",98.4%
same,"viability, T/C","second compound 1 µM, first compound 3.16 µM",103%
same,"viability, T/C","second compound 1 µM, first compound 10 µM",80.3%
same,"viability, T/C","second compound 3.16 µM, first compound 0.0316 µM",96.2%
same,"viability, T/C","second compound 3.16 µM, first compound 0.1 µM",101%
same,"viability, T/C","second compound 3.16 µM, first compound 0.316 µM",106%
same,"viability, T/C","second compound 3.16 µM, first compound 1 µM",108%
same,"viability, T/C","second compound 3.16 µM, first compound 3.16 µM",95.3%
same,"viability, T/C","second compound 3.16 µM, first compound 10 µM",75.1%
same,"viability, T/C","second compound 10 µM, first compound 0.0316 µM",99%
same,"viability, T/C","second compound 10 µM, first compound 0.1 µM",107%
same,"viability, T/C","second compound 10 µM, first compound 0.316 µM",111%
same,"viability, T/C","second compound 10 µM, first compound 1 µM",105%
same,"viability, T/C","second compound 10 µM, first compound 3.16 µM",92.5%
same,"viability, T/C","second compound 10 µM, first compound 10 µM",74.5%
